# Biological target: NA activity of oseltamivir-resistant (OR, H275Y) pandemic (H1N1) 2009 virus (Influenza A virus, UniProt C3W5S3, H275Y)
# Type: biochemical
SMILES,peramivir susceptibility,susceptibility by NA inhibition assay
CCC(CC)[C@H](NC(C)=O)[C@@H]1[C@H](O)[C@@H](C(=O)O)C[C@H]1N=C(N)N [peramivir],cross-resistance,
"CC(=O)N[C@H]1[C@H]([C@H](O)[C@H](O)CO)OC(C(=O)O)=C[C@@H]1N=C(N)N [Zanamivir, zanamivir]",,sensitive

# Reference: publication PMC3166015 (Emerging Infectious Diseases, 2011)
